In ChEMBL document CHEMBL1201862, “PubChem BioAssay data set” (2004):
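Each compound was tested at five concentrations against cells in 96-well plates for 48 hours. GI50 = concentration required for 50% inhibition of growth.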 Active and inactive are the calls of the source. Rule as the data show it: active = GI50 up to about 1.1 µM and inactive = higher.

Key:
Experiment in all cases: inhibition of tumour cell growth, NCI panel, 48 h
UACC-62 = test system: UACC-62
KM12 = test system: KM12
SN12C = test system: SN12C
SF-295 = test system: SF-295
HL-60 = test system: HL-60
DU-145 = test system: DU-145
T47D = test system: T47D
K562 = test system: K562
MDA-MB-231 = test system: MDA-MB-231
MOLT-4 = test system: MOLT-4
HCT-116 = test system: HCT-116
OVCAR-5 = test system: OVCAR-5
A549 = test system: A549
OVCAR-3 = test system: OVCAR-3
TK-10 = test system: TK-10
MDA-MB-435 = test system: MDA-MB-435
SF-268 = test system: SF-268
M14 = test system: M14
SNB-75 = test system: SNB-75
HCC 2998 = test system: HCC 2998

Compound	GI50 (UACC-62)	GI50 (KM12)	GI50 (SN12C)	GI50 (SF-295)	GI50 (HL-60)	GI50 (DU-145)	GI50 (T47D)	GI50 (K562)	GI50 (MDA-MB-231)	GI50 (MOLT-4)	GI50 (HCT-116)	GI50 (OVCAR-5)	GI50 (A549)	GI50 (OVCAR-3)	GI50 (TK-10)	GI50 (MDA-MB-435)	GI50 (SF-268)	GI50 (M14)	GI50 (SNB-75)	GI50 (HCC 2998)
COc1ccc(N[S+]([O-])CCCc2ccccc2)cc1 (configuration not stated)	44.9 µM (inactive)	34.8 µM (inactive)	> 100 µM (inactive)	> 100 µM (inactive)	67.3 µM (inactive)	> 100 µM (inactive)	14.7 µM (inactive)	75.5 µM (inactive)	> 100 µM (inactive)	> 100 µM (inactive)	> 100 µM (inactive)	> 100 µM (inactive)	65 µM (inactive)	88.7 µM (inactive)	> 100 µM (inactive)	> 100 µM (inactive)	> 100 µM (inactive)			
S=C1N=C(Cl)/C(=C\c2ccco2)N1	> 100 µM (inactive)	> 100 µM (inactive)	> 100 µM (inactive)	> 100 µM (inactive)	> 70.5 µM (inactive)	> 100 µM (inactive)	> 100 µM (inactive)	> 100 µM (inactive)	> 100 µM (inactive)	> 10 µM (inactive)	> 100 µM (inactive)	> 100 µM (inactive)	> 100 µM (inactive)	> 100 µM (inactive)	> 100 µM (inactive)	> 100 µM (inactive)	> 100 µM (inactive)	> 100 µM (inactive)	> 74.6 µM (inactive)	
COC1=C(OC)C(=O)C(Cc2c(C)nc3sccn23)=C(C)C1=O	10.6 µM (inactive)	15.2 µM (inactive)	15.8 µM (inactive)	15 µM (inactive)		18.1 µM (inactive)	18.2 µM (inactive)	18.7 µM (inactive)	13.1 µM (inactive)	2.01 µM (inactive)	19.3 µM (inactive)	16.8 µM (inactive)	11 µM (inactive)	15 µM (inactive)	16.4 µM (inactive)	13.6 µM (inactive)	18.8 µM (inactive)	17 µM (inactive)		20.9 µM (inactive)
O=C(Nc1nnc(-c2ccccc2)o1)C(SC(=S)N1CCOCC1)c1ccccc1 (configuration not stated)		34.3 µM (inactive)	12.6 µM (inactive)	21.8 µM (inactive)	12.3 µM (inactive)	37.2 µM (inactive)	39.8 µM (inactive)	19.5 µM (inactive)	42 µM (inactive)	7.98 µM (inactive)	22.5 µM (inactive)	25.6 µM (inactive)	22.6 µM (inactive)	15 µM (inactive)	51.6 µM (inactive)	33.2 µM (inactive)		20.4 µM (inactive)	47.9 µM (inactive)	
CO/C(N)=C(C#N)/N=C/c1ccc2ccccc2c1	3.06 µM (inactive)	23.1 µM (inactive)	> 100 µM (inactive)	33.2 µM (inactive)	3.61 µM (inactive)	> 100 µM (inactive)	8.73 µM (inactive)	4.72 µM (inactive)	19.5 µM (inactive)	30.6 µM (inactive)	76.2 µM (inactive)		77.6 µM (inactive)	24.2 µM (inactive)	> 100 µM (inactive)	7.1 µM (inactive)	> 100 µM (inactive)		78.9 µM (inactive)	
O=C(Oc1ccccc1)N1c2ccccc2[C@@]23O[C@]24CCC[C@H]3C#C/C=C\C#C[C@H]14	7.48 µM (inactive)	13.6 µM (inactive)	13.7 µM (inactive)	17.1 µM (inactive)	0.506 µM (active)	1.05 µM (active)	6.5 µM (inactive)	15.6 µM (inactive)	12.3 µM (inactive)	0.706 µM (active)	11.4 µM (inactive)	11.8 µM (inactive)	0.0942 µM (active)	13.3 µM (inactive)	19.9 µM (inactive)	16.1 µM (inactive)	13.6 µM (inactive)	15.2 µM (inactive)	8.85 µM (inactive)	
CN(C)c1ccc(C(C#N)N2CCCN(C(C#N)c3ccc(N(C)C)cc3)C2c2ccc(N(C)C)cc2)cc1 (configuration not stated)	> 100 µM (inactive)	> 100 µM (inactive)	> 100 µM (inactive)	> 100 µM (inactive)	> 100 µM (inactive)	> 100 µM (inactive)	> 100 µM (inactive)	> 100 µM (inactive)	> 100 µM (inactive)	> 100 µM (inactive)	> 100 µM (inactive)	> 100 µM (inactive)	> 100 µM (inactive)	> 100 µM (inactive)	> 100 µM (inactive)	> 100 µM (inactive)	> 100 µM (inactive)	> 100 µM (inactive)	> 100 µM (inactive)	
CN(C)CCNc1ncnc2nc(-c3ccccc3)c(-c3ccccc3)nc12	> 100 µM (inactive)	> 100 µM (inactive)	> 100 µM (inactive)		> 100 µM (inactive)	> 100 µM (inactive)	> 100 µM (inactive)		> 100 µM (inactive)	0.094 µM (active)	> 100 µM (inactive)	> 100 µM (inactive)	> 100 µM (inactive)	> 100 µM (inactive)	> 100 µM (inactive)	> 100 µM (inactive)	> 100 µM (inactive)	> 100 µM (inactive)	87.7 µM (inactive)	
O=C(CCc1ccc(O)cc1)NCCCNC(=O)CCc1ccc(O)cc1	> 100 µM (inactive)	> 100 µM (inactive)	> 100 µM (inactive)	> 100 µM (inactive)		> 100 µM (inactive)	> 100 µM (inactive)	> 100 µM (inactive)	> 100 µM (inactive)	> 100 µM (inactive)	> 100 µM (inactive)	> 100 µM (inactive)	> 100 µM (inactive)	> 100 µM (inactive)		> 100 µM (inactive)	> 100 µM (inactive)	> 100 µM (inactive)	24.7 µM (inactive)	> 100 µM (inactive)
O=c1/c(=C/c2ccc([N+](=O)[O-])o2)sc2n1[C@@H](c1ccc(Cl)cc1)C=C(c1cc(F)c(Cl)cc1Cl)N=2	14.8 µM (inactive)	24.5 µM (inactive)	5.5 µM (inactive)	21.3 µM (inactive)	12.3 µM (inactive)	17.7 µM (inactive)	19 µM (inactive)	13.2 µM (inactive)	5.07 µM (inactive)	12.9 µM (inactive)	3.56 µM (inactive)	16.3 µM (inactive)	30.3 µM (inactive)		16.1 µM (inactive)	16.1 µM (inactive)	13.8 µM (inactive)	14.6 µM (inactive)	29.2 µM (inactive)	
OCC(CCc1c[nH]c2ccccc12)c1c[nH]c2ccccc12 (configuration not stated)	14.1 µM (inactive)	15.9 µM (inactive)	17.5 µM (inactive)	16.7 µM (inactive)	8.95 µM (inactive)	16.7 µM (inactive)	16 µM (inactive)	18.2 µM (inactive)	14.1 µM (inactive)	14.5 µM (inactive)	15.5 µM (inactive)	17.4 µM (inactive)	17.6 µM (inactive)	27.3 µM (inactive)	19.6 µM (inactive)	18.4 µM (inactive)	17.3 µM (inactive)	15.3 µM (inactive)	19.7 µM (inactive)	
NCCNS(=O)(=O)c1ccc(N)cc1	> 100 µM (inactive)	> 100 µM (inactive)	> 100 µM (inactive)	> 100 µM (inactive)	18.7 µM (inactive)	> 100 µM (inactive)	> 100 µM (inactive)	> 100 µM (inactive)	> 100 µM (inactive)	> 100 µM (inactive)	> 100 µM (inactive)	> 100 µM (inactive)	> 100 µM (inactive)	> 100 µM (inactive)	> 100 µM (inactive)	> 100 µM (inactive)	> 100 µM (inactive)	> 100 µM (inactive)	> 100 µM (inactive)	
CC(C)Oc1c(C2(c3ccccc3)SCCCS2)c(=O)c1=O	> 100 µM (inactive)	50.2 µM (inactive)	> 100 µM (inactive)	> 100 µM (inactive)	> 100 µM (inactive)	> 100 µM (inactive)	> 100 µM (inactive)		> 100 µM (inactive)	> 100 µM (inactive)	> 100 µM (inactive)	> 100 µM (inactive)	> 100 µM (inactive)	> 100 µM (inactive)	> 100 µM (inactive)	> 100 µM (inactive)	> 100 µM (inactive)	> 100 µM (inactive)	> 100 µM (inactive)	
Clc1cc2nn(C3CCCCO3)nc2cc1Cl (configuration not stated)	> 100 µM (inactive)	> 100 µM (inactive)	> 100 µM (inactive)	> 100 µM (inactive)		> 100 µM (inactive)	> 100 µM (inactive)	> 100 µM (inactive)	> 100 µM (inactive)	> 100 µM (inactive)	> 100 µM (inactive)	> 100 µM (inactive)	> 100 µM (inactive)	> 100 µM (inactive)	> 100 µM (inactive)	> 100 µM (inactive)		> 100 µM (inactive)	> 100 µM (inactive)	> 100 µM (inactive)
Cc1ccc(S(=O)(=O)OC2CN3CCC2CC3)cc1 (configuration not stated)	> 100 µM (inactive)	> 100 µM (inactive)	> 100 µM (inactive)	> 100 µM (inactive)	22.6 µM (inactive)	> 100 µM (inactive)	> 100 µM (inactive)	> 100 µM (inactive)	> 100 µM (inactive)	> 100 µM (inactive)	> 100 µM (inactive)	> 100 µM (inactive)	> 100 µM (inactive)	> 100 µM (inactive)	> 100 µM (inactive)	> 100 µM (inactive)	> 100 µM (inactive)	> 100 µM (inactive)	> 100 µM (inactive)	
